# Where “and” joins values, the source holds several entries; their conditions need not be identical. Equal entries are not always repeated. Entries after “also recorded” stand apart in the source; their conditions may differ.
# Assays:
# Polβ = molecular target: T1, Polβ (Homo sapiens, UniProt P06746); assay: Primer extension by recombinant Pols (selectivity); type: biochemical
# T1 construct: gift: Dr. Wilson (NIEHS)
# DLD1 BRCA2 -/- cells = assay: Western blot γ-H2AX phosphorylation and PARP cleavage; type: cell-based; conditions: versus parental
# Description: Cells were harvested using—cell scraper and washed in phosphate-buffered saline (PBS), then lysed in 1 x RIPA Lysis and Extraction Buffer (Thermo Scientific #89901) containing Halt™ Protease and Phosphatase Inhibitor Cocktail (Thermo Scientific #1861281). Protein concentration was measured using Pierce™ BCA Protein Assay Kit (Thermo Scientific #23225). The proteins were separated by electrophoresis using 4–20% Mini-PROTEAN® TGX™ Precast Protein Gels (Bio-Rad #4561096) and transferred to Immuno Blot PVDF Membrane (Bio-Rad #1620177). Membranes were blocked using 5%-milk-TBST (or 5%-BSA-TBST for phospho-proteins) for 1 h at room temperature and washed with TBST prior to antibody incubation. Primary antibodies were incubated overnight at 4 °C in 1%-milk-TBST (or 2%-BSA-TBST for phospho-proteins). γ-H2AX (p Ser139) was detected using antibody (NOVUS #NB100-384) diluted 1:2000. Cleaved PARP was detected using antibody (Cell Signaling #9546) diluted 1:2000. Gapdh was detected using Gapdh (14C10) rabbit monoclonal antibody (Cell Signaling Technology #2118) diluted 1:4000. Membranes were washed with TBST prior to secondary antibody incubation for 1 h at room temperature using respective Goat anti-Rabbit IgG (H + L) HRP (Invitrogen #31466) or Goat anti-Mouse IgG (H + L) HRP (Invitrogen #31430)–tagged Secondary Antibody diluted 1:5000 in 2%-milk-TBST. […]
# DLD1 Parental cells = assay: Apoptosis assay (FITC active caspase-3); type: cell-based; set-up: FITC- AVG / FITC+ AVG: unit not given here; conditions: for FITC+ AVG / FITC- AVG: DLD1 Parental
# Description: DLD1 BRCA2 -/-, DLD1 Parental cells were plated on six well plates and treated with RTX-161 1 day after plating. Medium was replaced every 2 days with RTX-161. Cells were harvested 6 days after plating for apoptosis assay using FITC active caspase-3 apoptosis kit (BD biosciences, catalog # 550480) according to manufacturer’s instructions and analyzed by FACS with Celesta (Becton Dickinson).
# EcoRI = molecular target: T2, EcoRI (Escherichia coli, UniProt P00642); assay: EcoRI cleavage control in the absence of Polθ-pol; type: biochemical; conditions: for cleavage %: EcoRI; for inhibition of EcoRI activity: absence of Polθ-pol; for % cleavage: compound 10 µM
# T2 construct: purchased New England Biolabs
# T2 sequence (P00642 2-277 limits assumed): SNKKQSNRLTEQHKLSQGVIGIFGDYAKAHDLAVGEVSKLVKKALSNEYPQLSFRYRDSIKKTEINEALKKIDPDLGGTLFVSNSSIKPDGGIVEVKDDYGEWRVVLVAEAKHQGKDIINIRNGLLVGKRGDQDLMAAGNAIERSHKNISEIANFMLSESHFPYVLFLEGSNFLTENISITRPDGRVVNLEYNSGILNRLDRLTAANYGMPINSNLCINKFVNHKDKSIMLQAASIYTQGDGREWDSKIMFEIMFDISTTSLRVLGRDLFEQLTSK
# Description: (§1) EcoRI and KpnI endonucleases assay: 25 nM 5’-^32P radiolabeled primer-template DNA Sc15-EcoRI (5’-^32P LM3-EcoRI/LM4-EcoRI) or Sc19-KpnI (5’-^32P LM11-Kpn/LM12-Kpn) in reaction buffer (25 mM Tris-HCl pH 7.5, 10 mM MgCl2, 10% glycerol, 0.1 mg/mL BSA, 0,01% igepal, 1 mM DTT) were incubated in the presence or in the absence of 50 nM Polθ-pol, 100 μM ddCTP, and 10 μM inhibitors, as indicated, for 5 min at room temperature. Next, 0.08 U/μL EcoRI or KpnI together with 500 nM “trapping” DNA Sc14 (RP559/RP702) were added and incubated for further 0–40 min at 30 °C as indicated. 10 nM PolθΔcen and FL-Polθ and 25 nM Sc15-EcoRI and Sc19-Kpn were probed with 0.04 U/μL EcoRI or KpnI (both from New England Biolabs) using the same conditions. Reactions were stopped by addition of formamide loading buffer with 50 mM EDTA, resolved in denaturing 20% urea PAAG and analyzed using Typhoon PhosphorImager (GE Amersham). Quantification was done in ImageQuant TL software. All quantified experiments were performed in triplicates and plotted as mean with ± s.d using GraphPad Prism 9 software.
# KpnI = molecular target: T3, KpnI (Klebsiella pneumoniae, UniProt P25237); assay: KpnI cleavage control in the absence of Polθ-pol; type: biochemical; conditions: for cleavage %: KpnI; for inhibition of KpnI activity: absence of Polθ-pol; for % cleavage: compound 10 µM
# T3 construct: purchased New England Biolabs
# T3 sequence (P25237 1-218): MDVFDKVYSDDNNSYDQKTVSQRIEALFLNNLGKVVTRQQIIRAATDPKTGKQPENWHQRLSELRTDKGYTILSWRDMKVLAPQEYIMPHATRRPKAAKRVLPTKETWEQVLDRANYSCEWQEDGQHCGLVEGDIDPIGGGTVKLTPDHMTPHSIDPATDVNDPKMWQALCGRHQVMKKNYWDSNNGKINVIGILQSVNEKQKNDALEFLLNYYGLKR
# Description: as §1
# [1] = Colony survival, ola with or without RTX-161 (source data sheet Fig. 2 b; cell line not given); type: cell-based
# PolθΔL = molecular target: T4, PolθΔL (Homo sapiens, UniProt O75417, C1895G/DEL1861-1870/DEL1873-1894/DEL1918-1929/DEL2146-2157/DEL2161-2173/DEL2261-2287/DEL2291-2305/DEL2513-2514/DEL2518-2524/F2289G/F2526G/L1930G/L2158G/L2516G/M2525G/P1932S/P1933G/R2175G/R2306G/S1934G/V1931G); assay: PolθΔL primer extension; type: biochemical
# T4 construct: The gene encoding Polθ-pol (residues 1819–2590) was cloned into a pSUMOstar vector; 6xHis (N, cleaved yes); SUMO (N); made in house; host or cells: E. coli BL21(DE3)
# T4 sequence (O75417 with tags, fused parts or gaps with the stated changes): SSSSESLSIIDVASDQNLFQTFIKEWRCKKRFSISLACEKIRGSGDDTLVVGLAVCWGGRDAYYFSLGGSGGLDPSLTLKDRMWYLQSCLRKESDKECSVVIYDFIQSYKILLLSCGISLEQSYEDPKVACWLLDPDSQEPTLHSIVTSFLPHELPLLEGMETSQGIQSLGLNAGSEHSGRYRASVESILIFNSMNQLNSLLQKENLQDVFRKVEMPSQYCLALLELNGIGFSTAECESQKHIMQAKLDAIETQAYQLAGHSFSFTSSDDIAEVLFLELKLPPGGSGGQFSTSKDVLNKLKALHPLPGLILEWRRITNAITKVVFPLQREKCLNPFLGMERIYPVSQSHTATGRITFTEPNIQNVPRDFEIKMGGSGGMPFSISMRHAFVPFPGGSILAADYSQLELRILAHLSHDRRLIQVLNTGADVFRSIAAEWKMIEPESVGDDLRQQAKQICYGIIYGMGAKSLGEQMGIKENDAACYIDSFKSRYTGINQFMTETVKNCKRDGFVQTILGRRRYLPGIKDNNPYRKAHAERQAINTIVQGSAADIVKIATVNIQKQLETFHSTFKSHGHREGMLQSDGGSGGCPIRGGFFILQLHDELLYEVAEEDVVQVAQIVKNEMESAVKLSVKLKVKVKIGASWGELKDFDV
# [2] = Metabolic stability in liver microsomes; type: in vitro ADME; conditions: read-out: t1/2 liver microsomes
smiles,measurement,setting,value
CN(C(=O)Oc1c(N2CCN(CCO)C2=O)cc(C(F)(F)F)cc1C(F)(F)F)c1ccc(F)cc1 [RTx-161],% Full Extension,Polβ; Pol Beta,84.31%
same,% Inhibition Compared to Control,Polβ; Pol Beta,-0.98%
same,% Relative Maximum Extension,Polβ; Pol Beta,100.98%
same,inhibition of primer extension,"Polβ; selectivity panel, Pol named in Supplementary Fig. 1h",no inhibition
same,PARP cleavage,DLD1 BRCA2 -/- cells,selectively induced PARP cleavage
same,% population FITC Caspase-3 Negative,DLD1 Parental cells; 10 uM RTX-161,99%
same,% population FITC Caspase-3 Negative,DLD1 Parental cells; 20 uM RTX-161,99%
same,FITC+ AVG,"DLD1 Parental cells; 10 uM, left block of sheet",1.067
same,FITC- AVG,"DLD1 Parental cells; 10 uM, left block of sheet",98.9333
same,FITC+ AVG,"DLD1 Parental cells; 10 uM, middle block of sheet",2.067
same,FITC- AVG,"DLD1 Parental cells; 10 uM, middle block of sheet",98
same,FITC+ AVG,"DLD1 Parental cells; 10 uM, right block of sheet",2.033
same,FITC- AVG,"DLD1 Parental cells; 10 uM, right block of sheet",97.9667
same,FITC+ AVG,"DLD1 Parental cells; 20 uM, left block of sheet",0.9333
same,FITC- AVG,"DLD1 Parental cells; 20 uM, left block of sheet",99.0667
same,FITC+ AVG,"DLD1 Parental cells; 20 uM, middle block of sheet",1.467
same,FITC- AVG,"DLD1 Parental cells; 20 uM, middle block of sheet",98.6667
same,FITC+ AVG,"DLD1 Parental cells; 20 uM, right block of sheet",1.567
same,FITC- AVG,"DLD1 Parental cells; 20 uM, right block of sheet",98.7667
same,cleavage %,EcoRI; 3 min,26.2%
same,cleavage %,EcoRI; 6 min,44.3%
same,inhibition of EcoRI activity,EcoRI,resistant to inhibition; also recorded: do not inhibit
same,% cleavage,EcoRI; cleavage 3 min,26%
same,% cleavage,EcoRI; cleavage 6 min,44%
same,cleavage %,KpnI; 3 min,20.2%
same,cleavage %,KpnI; 6 min,33.3%
same,inhibition of KpnI activity,KpnI,resistant to inhibition
same,% cleavage,KpnI; cleavage 3 min,20%
same,% cleavage,KpnI; cleavage 6 min,33%
same,percent suvival,[1]; RTX-161 2.5 micro M + ola 11.8 nano M,48.7273%
same,percent suvival,[1]; RTX-161 2.5 micro M + ola 26.60 nano M,30.5455%
same,percent suvival,[1]; RTX-161 2.5 micro M + ola 60.00 nano M,18.9091%
same,percent suvival,"[1]; RTX-161 2.5 micro M, ola 0.00 nano M",75.7576% and 82.5581% and 83.6364%
same,percent suvival,[1]; RTX-161 5 micro M + ola 11.8 nano M,22.5455%
same,percent suvival,[1]; RTX-161 5 micro M + ola 26.60 nano M,14.9091%
same,percent suvival,[1]; RTX-161 5 micro M + ola 60.00 nano M,2.545%
same,percent suvival,"[1]; RTX-161 5 micro M, ola 0.00 nano M",46.9697% and 43.6047% and 70.9091%
same,percent suvival,[1]; RTX-161 10 micro M + ola 11.8 nano M,9.818%
same,percent suvival,[1]; RTX-161 10 micro M + ola 26.60 nano M,5.091%
same,percent suvival,[1]; RTX-161 10 micro M + ola 60.00 nano M,0.7273%
same,percent suvival,"[1]; RTX-161 10 micro M, ola 0.00 nano M",24.2424% and 34.8837% and 47.6364%
CN1CCN(c2cc(C(F)(F)F)cc(C(F)(F)F)c2OC(=O)N(C)c2ccc(F)cc2)C1=O [RTx-152],cleavage %,EcoRI; 3 min,27.4%
same,cleavage %,EcoRI; 6 min,49.4%
same,inhibition of EcoRI activity,EcoRI,resistant to inhibition; also recorded: do not inhibit
same,% cleavage,EcoRI; cleavage 3 min,27%
same,% cleavage,EcoRI; cleavage 6 min,49%
same,cleavage %,KpnI; 3 min,21.3%
same,cleavage %,KpnI; 6 min,35.8%
same,inhibition of KpnI activity,KpnI,resistant to inhibition
same,% cleavage,KpnI; cleavage 3 min,21%
same,% cleavage,KpnI; cleavage 6 min,36%
CN(C(=O)Oc1ccc(C(F)(F)F)cc1C(F)(F)F)c1ccc(F)cc1 [MC160385],inhibition of PolθΔL primer extension,PolθΔL,inhibits
same,half-life,[2],6.2 min
